Among the test systems are CAKI-1 renal; COLO 205 colon; HCT-116 colon; HL-60(TB) leukemia; HOP-62 NSCLC; IGROV1 ovarian; OVCAR-3 ovarian; OVCAR-5 ovarian; SK-OV-3 ovarian; UACC-257 melanoma.
Common to all, as to test: NCI anticancer screen, dose series, 48 h

“And” between values parts separate entries of the source, which are not always exact repeats. Identical values can stand only once.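 Briefly, cells in 96-well plates were exposed to five compound concentrations for 48 h, and endpoints were estimated by linear interpolation. GI50 marks 50% less growth. At the TGI there is no net growth.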

In the case of `O=C(CCN1CCN(c2cccc(Cl)c2)CC1)N1CCc2c([nH]c3ccccc23)C1c1cccnc1` (stereo not drawn), the TGI in the experiment on CAKI-1 renal was 14.3 µM; in the experiment on COLO 205 colon, 15.6 µM; in the experiment with HCT-116 colon, 18.3 µM; in the experiment on HL-60(TB) leukemia, 5.53 µM and 11.2 µM; in the experiment on HOP-62 NSCLC, 23.9 µM; with IGROV1 ovarian it was greater than 100 µM. In addition, the TGI in the experiment on OVCAR-3 ovarian was 8.77 µM and 20.1 µM; with OVCAR-5 ovarian, 23.3 µM; in the experiment with SK-OV-3 ovarian, 28.8 µM; in the experiment with UACC-257 melanoma, 21.3 µM. The GI50 in the experiment with COLO 205 colon was 4.83 µM; in the experiment on HCT-116 colon it was 6.36 µM; in the experiment with HL-60(TB) leukemia, 3.19 µM; in the experiment on IGROV1 ovarian, 18.7 µM; in the experiment on OVCAR-3 ovarian, 7.67 µM; in the experiment on OVCAR-5 ovarian it was 5.75 µM. Moreover, the results for the GI50 in the experiment on SK-OV-3 ovarian and with UACC-257 melanoma were 13.4 µM and 6.43 µM, respectively.

For `CN/N=C(/Cc1occc(=O)c1O)C(=O)Nc1ccc(C)c(C)c1`, the TGI in the experiment with CAKI-1 renal, in the experiment on COLO 205 colon, in the experiment with HCT-116 colon, with HL-60(TB) leukemia, in the experiment with HOP-62 NSCLC and in the experiment on IGROV1 ovarian was greater than 100 µM in each case. Moreover, the TGI in the experiment with OVCAR-3 ovarian, with OVCAR-5 ovarian, with SK-OV-3 ovarian and in the experiment on UACC-257 melanoma was greater than 100 µM each time.

Turning to `COc1ccc(CN2C(=O)/C(=C\c3cc(OC)c(OC)c(OC)c3)c3cc(OC)ccc32)cc1`, the GI50 with CAKI-1 renal was 2.95 µM; with COLO 205 colon, 2.59 µM; in the experiment with HCT-116 colon it was 1.63 µM; in the experiment on HL-60(TB) leukemia it was 3.28 µM; with HOP-62 NSCLC, 2.37 µM; in the experiment with IGROV1 ovarian, 1.8 µM. In addition, the GI50 was 2.14 µM in the experiment on OVCAR-3 ovarian, 2.47 µM in the experiment on OVCAR-5 ovarian, 3.12 µM in the experiment with SK-OV-3 ovarian and 1.94 µM with UACC-257 melanoma. In addition, the TGI was greater than 22.2 µM in the experiment on CAKI-1 renal; 6.51 µM in the experiment on COLO 205 colon; 3.05 µM with HCT-116 colon; greater than 28.5 µM with HL-60(TB) leukemia; 4.89 µM in the experiment with HOP-62 NSCLC; 4.06 µM with IGROV1 ovarian. For the same compound, the TGI in the experiment with OVCAR-3 ovarian was found to be 4.7 µM; with OVCAR-5 ovarian, 5.51 µM; in the experiment on SK-OV-3 ovarian it was 13.1 µM; in the experiment on UACC-257 melanoma, 4.94 µM.

With `O=C1C2C(C(=O)N1O)N(Cc1ccccc1)C(=O)N2Cc1ccccc1` (stereo not drawn), the TGI with CAKI-1 renal, with COLO 205 colon, in the experiment on HCT-116 colon, in the experiment on HL-60(TB) leukemia, in the experiment with HOP-62 NSCLC and with IGROV1 ovarian was greater than 100 µM each time. The TGI in the experiment on OVCAR-3 ovarian, in the experiment on OVCAR-5 ovarian, in the experiment on SK-OV-3 ovarian and in the experiment with UACC-257 melanoma was greater than 100 µM in each case.

The values are drawn from PubChem BioAssay (NCI).
